The subject of this assay is Hepatitis C virus. Kind of assay: Antiviral activity against HCV by viral replicon assay. Format: functional, organism-based, Hepacivirus hominis.

pEC50: −log10 of the molar value.

In turn, `CC(C)(C)C(=O)SCCOP(=O)(OCCSC(=O)C(C)(C)C)OC[C@H]1O[C@@H](n2cc3cc[nH]c3nc2=O)[C@H](O)[C@@H]1O` had a pEC50 of 4.22.

The values above are taken from ChEMBL document CHEMBL1139784, “Design and evaluation of a potential mutagen for Hepatitis C virus” (Bioorg Med Chem Lett, 2007).
